In brackets after ≈: the same amount, converted by molar mass.
Assays:
Assay type in all cases: functional
Staphylococcus aureus [1] = assay: Antimicrobial activity against Staphylococcus aureus CS1128
Staphylococcus aureus [2] = assay: Antimicrobial activity against Staphylococcus aureus CS805
Staphylococcus aureus [3] = assay: Antimicrobial activity against Staphylococcus aureus CS860
Staphylococcus aureus [4] = assay: Antimicrobial activity against Staphylococcus aureus CS1076
Staphylococcus aureus [5] = assay: Antimicrobial activity against Staphylococcus aureus RN4220 expressing pCU1 gene
Staphylococcus aureus [6] = assay: Antimicrobial activity against Staphylococcus aureus RN4220 expressing (pCU1:SAS0043) (fusC) gene
Staphylococcus aureus [7] = assay: Antimicrobial activity against Staphylococcus aureus RN4220 expressing (pCU1:SSP2165) (fusD) gene
Staphylococcus aureus [8] = assay: Antimicrobial activity against Staphylococcus aureus RN4220 expressing pAJ96
Staphylococcus aureus [9] = assay: Antimicrobial activity against Staphylococcus aureus RN4220 expressing pAJ96:fusB
Staphylococcus aureus [10] = assay: Antimicrobial activity against Staphylococcus aureus RN4220 expressing (pAJ96:SAS0043) (fusC) gene
Staphylococcus aureus [11] = assay: Antimicrobial activity against Staphylococcus aureus RN4220
Staphylococcus aureus [12] = assay: Antimicrobial activity against Staphylococcus aureus CS957
Staphylococcus aureus [13] = assay: Antimicrobial activity against Staphylococcus aureus
Staphylococcus aureus [14] = assay: Antimicrobial activity against methicillin-susceptible Staphylococcus aureus 476
Staphylococcus aureus [15] = assay: Antimicrobial activity against Staphylococcus aureus 649 expressing pUB101
Staphylococcus aureus [16] = assay: Antimicrobial activity against Staphylococcus aureus RN4220 expressing pCU1:fusB gene
Staphylococcus aureus [17] = assay: Antimicrobial activity against Staphylococcus aureus CS992
Staphylococcus aureus [18] = assay: Antimicrobial activity against Staphylococcus aureus CS730
Staphylococcus aureus [19] = assay: Antimicrobial activity against Staphylococcus aureus CS808
Staphylococcus aureus [20] = assay: Antimicrobial activity against Staphylococcus aureus CS866
Staphylococcus aureus [21] = assay: Antimicrobial activity against Staphylococcus aureus CS602
Staphylococcus aureus [22] = assay: Antimicrobial activity against Staphylococcus aureus CS851
Staphylococcus aureus [23] = assay: Antimicrobial activity against Staphylococcus aureus CS979
Staphylococcus aureus [24] = assay: Antimicrobial activity against Staphylococcus aureus CS1083
Staphylococcus aureus [25] = assay: Antimicrobial activity against Staphylococcus aureus RN4220 expressing (pAJ96:SSP2165) (fusD) gene
[26] = test system: Staphylococcus intermedius; assay: Antimicrobial activity against Staphylococcus intermedius CL1
[27] = test system: Staphylococcus intermedius; assay: Antimicrobial activity against Staphylococcus intermedius CL2
[28] = test system: Staphylococcus intermedius; assay: Antimicrobial activity against Staphylococcus intermedius NCTC 11048
[29] = test system: Staphylococcus lugdunensis; assay: Antimicrobial activity against Staphylococcus lugdunensis 16641
[30] = test system: Staphylococcus lugdunensis; assay: Antimicrobial activity against Staphylococcus lugdunensis 16496
[31] = test system: Staphylococcus lugdunensis; assay: Antimicrobial activity against Staphylococcus lugdunensis 31440
[32] = test system: Staphylococcus lugdunensis; assay: Antimicrobial activity against Staphylococcus lugdunensis 40869
[33] = test system: Staphylococcus saprophyticus; assay: Antimicrobial activity against Staphylococcus saprophyticus ATCC 15305

SMILES: CC(=O)O[C@H]1C[C@@]2(C)[C@@H](C[C@@H](O)[C@H]3[C@@]4(C)CC[C@@H](O)[C@@H](C)[C@@H]4CC[C@@]32C)/C1=C(\CCC=C(C)C)C(=O)O [FUSIDIC ACID]
- MIC (Staphylococcus aureus [1]): 4 µg/mL (≈ 7.74 µM)
- MIC (Staphylococcus aureus [2]): 8 µg/mL (≈ 15.5 µM)
- MIC (Staphylococcus aureus [3]): 8 µg/mL (≈ 15.5 µM)
- MIC (Staphylococcus aureus [4]): 8 µg/mL (≈ 15.5 µM)
- MIC (Staphylococcus aureus [5]): 0.125 µg/mL (≈ 0.242 µM)
- MIC (Staphylococcus aureus [6]): 16 µg/mL (≈ 31 µM)
- MIC (Staphylococcus aureus [7]): 2 µg/mL (≈ 3.87 µM)
- MIC (Staphylococcus aureus [8]): 0.125 µg/mL (≈ 0.242 µM)
- MIC (Staphylococcus aureus [9]): 32 µg/mL (≈ 61.9 µM)
- MIC (Staphylococcus aureus [10]): 16 µg/mL (≈ 31 µM)
- MIC (Staphylococcus aureus [11]): 0.125 µg/mL (≈ 0.242 µM)
- MIC (Staphylococcus aureus [12]): 3 µg/mL (≈ 5.81 µM)
- MIC (Staphylococcus aureus [13]): 4 µg/mL (≈ 7.74 µM)
- MIC (Staphylococcus aureus [14]): 8 µg/mL (≈ 15.5 µM)
- MIC (Staphylococcus aureus [15]): 16 µg/mL (≈ 31 µM)
- MIC (Staphylococcus aureus [16]): 16 µg/mL (≈ 31 µM)
- MIC (Staphylococcus aureus [17]): 2 µg/mL (≈ 3.87 µM)
- MIC (Staphylococcus aureus [18]): 3 µg/mL (≈ 5.81 µM)
- MIC (Staphylococcus aureus [19]): 3 µg/mL (≈ 5.81 µM)
- MIC (Staphylococcus aureus [20]): 3 µg/mL (≈ 5.81 µM)
- MIC (Staphylococcus aureus [21]): 4 µg/mL (≈ 7.74 µM)
- MIC (Staphylococcus aureus [22]): 4 µg/mL (≈ 7.74 µM)
- MIC (Staphylococcus aureus [23]): 4 µg/mL (≈ 7.74 µM)
- MIC (Staphylococcus aureus [24]): 4 µg/mL (≈ 7.74 µM)
- MIC (Staphylococcus aureus [25]): 4 µg/mL (≈ 7.74 µM)
- MIC [26]: 4 µg/mL (≈ 7.74 µM)
- MIC [27]: 4 µg/mL (≈ 7.74 µM)
- MIC [28]: 0.064 µg/mL (≈ 0.124 µM)
- MIC [29]: 4 µg/mL (≈ 7.74 µM)
- MIC [30]: 4 µg/mL (≈ 7.74 µM)
- MIC [31]: 4 µg/mL (≈ 7.74 µM)
- MIC [32]: 0.064 µg/mL (≈ 0.124 µM)
- MIC [33]: 2 µg/mL (≈ 3.87 µM)
